Measured values reported in patent US9199200B2, “Submerged membrane bioreactor system and biological methods for removing bisphenol compounds from municipal wastewater” (Centre de Recherche Industrielle de Québec (CRIQ), priority 2010, dated 2015).

Tests used:
aquatic ecosystems = settings: Oehlmann et al.; cited from earlier work
[1] = Sorption time course of BPA on activated and inactivated sludge in shake flasks; assay type: physicochemical; settings: average over the first 30 min; initial 5.0 or 10 mg/L; 15 g TSS/L
Method: To elucidate the plausible mechanisms of the biological removal of the bisphenol compounds, the removal of BPA was tested (adsorption on the biomass versus biological oxidation), and additional experiments are carried out in Erlenmeyer shake flasks containing either activated sludge or inactivated sludge in the presence of BPA. The sludge used for the tests is withdrawn from the SMBR unit. Prior to BPA addition in activated sludge sample, sludge is initially centrifuged at 8000 rpm at 4° C. for 10 min and softly washed. The inactivated sludge is prepared by subjecting sludge samples to a sterilization by adding 1.0 mL HgSO4 (20 g/L) to 200 mL of sludge. Then, the sterilized and centrifuged sample sludge is placed in conical flasks and shaken at 150 rpm at 22±2° C. for 2 h, and then centrifuged at 8000 rpm at 4° C. for 10 min. Different concentrations of BPA (0.45 to 18.2 mg/L) are added in the same mass of sludge (3.0 g of sludge diluted to 200 mL with milli-Q water). […] The flasks are shaken at 150 rpm at 22±2° C., pH=7±0.5 for 24 h and samples are taken in regular time intervals, and the amount of BPA adsorbed is determined by measuring the residual BPA concentrations in solution The same assay is carried out using inactivated sludge. […]

[2] = tested on: biomass (activated sludge) of the SMBR; test: COD removal in submerged membrane bioreactor (SMBR) fed synthetic wastewater contaminated by BPA
Text: According to another embodiment, a submerged membrane bioreactor system (SMBR) operated at the laboratory scale is represented in the diagram of FIG. 1. The pilot unit is comprised of ZEEWEED® (ZW-1) hollow-fibre membranes of 0.04 μm rated pore diameter and 0.047 m^2 total filtering surface area, assembled vertically. The membrane unit is provided by Zenon Environmental & Co (Oakville, ON, Canada). ZW-1 membrane, whose module contains 80 fibres of 20 cm length, may be either operated in closed loop or in continuous mode of operation, through a stirred 6 L tank of 19.1 cm water high. Filtration may be achieved by drawing water through the membrane under a slight vacuum generated by a peristaltic pump (11) and measured by a manometer (10) located just after the membrane on the aspiration line. Air may be supplied through an extended aeration tube located inside the membrane module and also used to attach it vertically. The filtration of the effluent may be carried out intermittently (5 min of filtration followed by 30 s of pause) but air should be continuously injected in the SMBR system. An oxygen probe (5) may be connected to an oxymeter and installed in the bioreactor tank to measure dissolved oxygen concentration. The air flow-rate may be measured using a flow-meter (17). pH and temperature can also be measured during the experiments by using pH (8) and temperature (9) probes installed in the bioreactor tank.
According to some embodiments of the present invention, the SMBR system may be seeded by activated sludge collected from any suitable municipal wastewater treatment plant. The first step consists in developing the biomass by using a synthetic wastewater of a known composition carried out according known techniques. For example, the initial biomass may be developed using glucose as an organic substrate (400-2000 mg/L of COD), although any other suitable sources of carbon may be employed as organic substrates, for example sodium acetate or peptone. The biomass is developed over a period of time suitable to obtain a sufficiently concentrated biomass. […]
According to an embodiment, the biomass may be acclimatized in oxidizing the bisphenol compound over of period of time sufficient to obtain a biomass capable of oxidizing said bisphenol compound. […] It is worth noting that, during both successive stages (biomass development and biomass acclimatization), the performance of the SMBR was evaluated by the measurements of COD. […]
During the experimental work, samples are taken for different analyses. […] BPA is also analyzed using liquid chromatography mass spectrometer (LC-MS/MS) after extraction and purification on a solid phase. […]

CC(C)(c1ccc(O)cc1)c1ccc(O)cc1 [BPA, 2,2-Bis(4-hydroxyphenyl)propane]
Concentration of BPA with adverse effects in aquatic ecosystems (aquatic ecosystems): below 1.0 μg/L
BPA removed by physical sorption [1]: 69%
BPA concentration at the entry of the SMBR from which foam is observed in the mixed liquor (perturbation in the bacterial activity) ([2]; 14 g VSS/L, HRT 6 h): ≥ 25 mg/L
Volumetric loading at which BPA became toxic for the bacterial activity ([2]; SMBR, around 5.0 mg/L BPA): 21.6 g BPA/m^3/d
Limit of toxicity, organic loading ([2]; SMBR, at 25 mg BPA/L): 7.71 g BPA/kg VSS/d
Limit of toxicity, volumetric loading ([2]; SMBR, at 25 mg BPA/L): about 108 g BPA/m^3/d
